Measurements reported in patent publication US20100240674A1 (priority 2007, published 2010).
Structures can show the parent of a compound that is named as a salt.

Assays:
NPC mice = assay: Hanging Test (locomotor activity); type: in vivo; settings: 50 mg/Kg daily intraperitoneally for 28 days, vs saline
From the text: To test locomotor activity, the Hanging Test that has been validated for these mice was used (Voikar et al., 2002). For this test a score from 0 to 5 was assigned to the mice based on their motor capabilities. To determine the score, the animal is observed during 30 seconds, a value is assigned according to the following scale: 0, if it falls before 10 seconds; 1, if it hangs from the bar with its fore paws; 2, if it tries to climb on the bar with its hind paws; 3, if it grabs the bar with its fore paws and one or two hind paws; 4, if it grabs the bar with all four paws and its tail; and 5, if it actively escapes from the bar and reaches one of the ends of the bar.

[1] = system: cerebellar Purkinje neurons
From the text: In all experiments discussed herein, “NPC mice” refers to mice deficient in the NPC1 protein or NPC1−/−. In FIG. 1, the cerebellums of 4 week old NPC mice and wild type mice are shown at a, b, g and h. The cerebellums of 6 week old NPC mice and wild type mice are shown at c, d, i and j. The cerebellums of 8 week old NPC mice and wild type mice are shown at e, f, k and l. The immunohistochemical procedures utilized were: anti-c-Abl, (K12; 1:500) and anti-p73 (H-79; 1:250) (Santa Cruz Biotech, Santa Cruz, Calif.), and anti-calbindin D-28K (1:1,000). Immunohistochemical procedures were carried out by means of histological stain on floating sections. Immunocytochemistry was performed using the avidin biotin horseradish peroxidase complex (ABC) method (Vector Laboratories, Burlingame, Calif.) and sections were mounted on gelatin pre-coated slides and air-dried, then dehydrated in graded ethanol and finally covered with Permount.
The immunohistochemical protocols used are the same as those described above relating to FIG. 1.
The following process was used for in situ apoptosis detection: the terminal deoxynucleotidyl transferase mediated deoxyuridine-biotin (dUTP) nick end labeling (TUNEL) was performed using the apoptosis detection kit purchased from Roche Molecular Biochemicals (Mannheim, Germany). The sections were first incubated in a blocking solution containing 3% H2O2 in methanol. Afterward, slices were incubated in 0.1% Triton X-100 in 0.1% sodium citrate over-night at RT to increase the permeability. After being washed twice in PBS, pH 7.4, the sections were immersed in the TUNEL reaction mixture, containing dUTP-fluorescein and terminal deoxynucleotidyl transferase (TdT) conjugated for 60 minutes at 37° C. in a dark, humid atmosphere. The process was terminated by washing the sections twice in PBS buffer. For the immunofluorescence (IF) sections slides were incubated overnight with rabbit polyclonal anti-calbindin D-28K (1:1,000; Chemicon International, Temecula, Calif.). […] Fluorescent images were captured with an Olympus BX51 microscope and analyzed with IMAGE pro-express.

cerebella of NPC mice = assay: TUNEL immunofluorescence apoptosis analysis on cerebella; settings: 50 mg/Kg daily intraperitoneally for 28 days, vs saline

With `Cc1ccc(NC(=O)c2ccc(CN3CCN(C)CC3)cc2)cc1Nc1nccc(-c2cccnc2)n1` [imatinib mesylate, 4-(4-methylpiperazin-1-ylmethyl)-N-[4-methyl-3-((4-pyridin-3-yl)(pyrimidin-2-ylamino)phenyl]benzamide methanesulfonate] the “Hanging Test score” value (NPC mice; NPC mice) was “increased the scores”, the “effect on locomotor activity (Hanging Test)” value (NPC mice; wild type mice) was “does not affect the locomotor activity” and the “calbindin positive areas for Purkinje neurons” value ([1]; NPC mice, 50 mg/Kg daily intraperitoneally for 28 days, immunofluorescence) was “significant increase”. The “death of Purkinje neurons (calbindin immunohistochemistry)” value ([1]; NPC mice, 50 mg/Kg daily intraperitoneally for 28 days, vs saline) was “reduces the death of Purkinje neurons”, the calbindin staining ([1]; mouse, in vivo, ip, 50 mg/kg) was “does not affect the calbindin staining” and the “apoptosis in cerebella (TUNEL)” value (cerebella of NPC mice) was “decreases apoptosis”. For the same compound, the “number of TUNEL positive cells” value (cerebella of NPC mice) was “significantly less”.
